Data published in patent publication US12371464B2, “Polypeptides and uses thereof” (MEDIMMUNE LIMITED, priority 2020, dated 2025).
Numbered stars: 1 amine (or outer) side, 2 acyl side, 3 side chain; on linkers, the order of the positions; unused ones are H or OH. Bridge positions count the residues as written; N and C are the ends. Square brackets hold non-standard residues; d marks the D form. Side chains are listed from the residue outwards. Peptide text beside a SMILES is read from it. * marks the point of attachment. C18 diacid = O=C(O)CCCCCCCCCCCCCCCCC(=O)*; γGlu = O=C(O)[C@H](CCC(=O)[*:2])N[*:1]; αMeF = C[C@](N)(Cc1ccccc1)C(=O)O; AEEA = NCCOCCOCC(=O)O

Test: Thioflavin T fibrillation assay
Assay type: physicochemical
Details: 1 mg/mL in 25 mM sodium acetate buffer pH 4.0, 37° C., 6 days, orbital shaking; >144 h = no increase
From the text: Peptide aggregation that form fibrils is an indication of physical instability. Fibril formation in solution poses a significant risk for the stability of injectable peptide drug products. Thioflavin T (ThT) fibrillation assay is a useful tool to assess the aggregation kinetics of a peptide or protein under accelerated and stressed conditions that can be used to forecast the long-term viability of a compound in solution. ThT can selectively bind amyloid fibrils and the resultant complex emits strong fluorescence signal at 482 nm when excited at 450 nm (Anal Biochem. 1989 March; 177 (2): 244-9). Monitoring of the change in fluorescence signal is an established method to study the fibril forming potential of peptides and proteins. ThT (purchased from Sigma Aldrich) stock solution is prepared by dissolving the ThT powder in Milli-Q water and filtered to obtain a 0.25 mM solution. The concentration of the solution is measured at 412 nm using an extinction coefficient of 36 mM-1 cm-1. Test peptides were dissolved at 1 mg/mL in 25 mM sodium acetate buffer pH 4.0. 100 μL aliquot of peptide solution and 5 μL aliquot of ThT solution were placed in a clear bottom black fluorescence 96-well plate. 5 replicates of each test samples were placed in the same row of the plate. Buffer was placed in control wells for baseline correction. All empty wells were filled with water to prevent evaporation. The plate was sealed with aluminium seal and placed in fluorescence plate reader and incubated for 6 days at 37° C. with intermittent orbital shaking at 500 to 750 rpm. The fluorescence intensity was measured every 30 min using excitation at 444 nm and emission at 480 nm. The fibril forming potential of the test peptides was determined by measuring the average time taken to detect an increase in baseline corrected fluorescence intensity.

Q: With CC[C@H](C)[C@H](NC(=O)[C@@H]1CCCN1C(=O)CNC(=O)[C@](C)(Cc1ccccc1)NC(=O)[C@H](CC(N)=O)NC(=O)[C@H](CC(N)=O)NC(=O)[C@H](CO)NC(=O)[C@H](CO)NC(=O)[C@H](Cc1c[nH]cn1)NC(=O)[C@H](CCCNC(=N)N)NC(=O)[C@H](CC(C)C)NC(=O)[C@H](Cc1ccccc1)NC(=O)[C@H](CCC(=O)O)NC(=O)[C@H](C)NC(=O)[C@H](CC(C)C)NC(=O)[C@H](CCCNC(=N)N)NC(=O)[C@H](CCC(N)=O)NC(=O)[C@@H](NC(=O)[C@H](C)NC(=O)[C@@H]1CSSC[C@H](NC(=O)CC[C@H](NC(=O)CCCCCCCCCCCCCCCCC(=O)O)C(=O)O)C(=O)N[C@@H](CC(N)=O)C(=O)N[C@@H]([C@@H](C)O)C(=O)N[C@@H](C)C(=O)N[C@@H]([C@@H](C)O)C(=O)N1)[C@@H](C)O)C(=O)N[C@@H](CC(C)C)C(=O)N1CCC[C@H]1C(=O)N1CCC[C@H]1C(=O)N[C@H](C(=O)N[C@@H](CC(N)=O)C(=O)N[C@H](C(=O)NCC(=O)N[C@@H](CO)C(=O)N[C@@H](CC(N)=O)C(=O)N[C@H](C(=O)N[C@@H](Cc1ccc(O)cc1)C(N)=O)[C@@H](C)O)C(C)C)[C@@H](C)O [Peptide 10, C18diacid-γE-[CNTATC]ATQRLAEFLRHSSNN(αMePhe)GPILPPTNVGSNTY-amide] ({C18 diacid-γGlu}-CNTATCATQRLAEFLRHSSNN[αMeF]GPILPPTNVGSNTY-NH2; disulfide 1-6) as the molecule, how does the “Time taken to detect increase in fluorescence intensity” value (from here on “Time taken to detect increase”) read?
A: >144 h

Q: Which “Time taken to detect increase” value does the source give for CC[C@H](C)[C@H](NC(=O)[C@@H]1CCCN1C(=O)CNC(=O)[C@](C)(Cc1ccccc1)NC(=O)[C@H](CC(N)=O)NC(=O)[C@H](CC(N)=O)NC(=O)[C@H](CO)NC(=O)[C@H](CO)NC(=O)[C@H](Cc1c[nH]cn1)NC(=O)[C@H](CCCNC(=N)N)NC(=O)[C@H](CC(C)C)NC(=O)[C@H](Cc1ccccc1)NC(=O)[C@H](CCC(=O)O)NC(=O)[C@H](C)NC(=O)[C@H](CC(C)C)NC(=O)[C@H](CCCNC(=N)N)NC(=O)[C@H](CCC(N)=O)NC(=O)[C@@H](NC(=O)[C@H](C)NC(=O)[C@@H]1CSSC[C@H](NC(=O)[C@@H](N)CCCCNC(=O)CC[C@H](NC(=O)CC[C@H](NC(=O)CCCCCCCCCCCCCCCCC(=O)O)C(=O)O)C(=O)O)C(=O)N[C@@H](CC(N)=O)C(=O)N[C@@H]([C@@H](C)O)C(=O)N[C@@H](C)C(=O)N[C@@H]([C@@H](C)O)C(=O)N1)[C@@H](C)O)C(=O)N[C@@H](CC(C)C)C(=O)N1CCC[C@H]1C(=O)N1CCC[C@H]1C(=O)N[C@H](C(=O)N[C@@H](CC(N)=O)C(=O)N[C@H](C(=O)NCC(=O)N[C@@H](CO)C(=O)N[C@@H](CC(N)=O)C(=O)N[C@H](C(=O)N[C@@H](Cc1ccc(O)cc1)C(N)=O)[C@@H](C)O)C(C)C)[C@@H](C)O [Peptide 11, K(γE-γE-C18diacid)[CNTATC]ATQRLAEFLRHSSNN(αMePhe)GPILPPTNVGSNTY-amide] (H-K([γGlu-γGlu-C18 diacid])CNTATCATQRLAEFLRHSSNN[αMeF]GPILPPTNVGSNTY-NH2; disulfide 2-7; N-terminus assumed) here?
A: >144 h

Q: For CC[C@H](C)[C@H](NC(=O)[C@@H]1CCCN1C(=O)CNC(=O)[C@](C)(Cc1ccccc1)NC(=O)[C@H](CC(N)=O)NC(=O)[C@H](CC(N)=O)NC(=O)[C@H](CO)NC(=O)[C@H](CO)NC(=O)[C@H](Cc1c[nH]cn1)NC(=O)[C@@H](NC(=O)[C@H](CC(C)C)NC(=O)[C@H](Cc1ccccc1)NC(=O)[C@H](CC(N)=O)NC(=O)[C@H](C)NC(=O)[C@H](CC(C)C)NC(=O)[C@H](CCCNC(=N)N)NC(=O)[C@H](CCC(N)=O)NC(=O)[C@@H](NC(=O)[C@H](C)NC(=O)[C@@H]1CSSC[C@H](NC(=O)[C@@H](N)CCCCNC(=O)CC[C@H](NC(=O)CC[C@H](NC(=O)CCCCCCCCCCCCCCCCC(=O)O)C(=O)O)C(=O)O)C(=O)N[C@@H](CC(N)=O)C(=O)N[C@@H]([C@@H](C)O)C(=O)N[C@@H](C)C(=O)N[C@@H]([C@@H](C)O)C(=O)N1)[C@@H](C)O)C(C)C)C(=O)N[C@@H](CC(C)C)C(=O)N1CCC[C@H]1C(=O)N1CCC[C@H]1C(=O)N[C@H](C(=O)N[C@@H](CC(N)=O)C(=O)N[C@H](C(=O)NCC(=O)N[C@@H](CO)C(=O)N[C@@H](CC(N)=O)C(=O)N[C@H](C(=O)N[C@@H](Cc1ccc(O)cc1)C(N)=O)[C@@H](C)O)C(C)C)[C@@H](C)O [Peptide 13, K(γE-γE-C18diacid)[CNTATC]ATQRLANFLVHSSNN(αMePhe)GPILPPTNVGSNTY-amide] (H-K([γGlu-γGlu-C18 diacid])CNTATCATQRLANFLVHSSNN[αMeF]GPILPPTNVGSNTY-NH2; disulfide 2-7; N-terminus assumed), which “Time taken to detect increase” value is on record?
A: 25 h

Q: With CC[C@H](C)[C@H](NC(=O)[C@@H]1CCCN1C(=O)CNC(=O)[C@](C)(Cc1ccccc1)NC(=O)[C@H](CC(N)=O)NC(=O)[C@H](CC(N)=O)NC(=O)[C@H](CO)NC(=O)[C@H](CO)NC(=O)[C@H](Cc1c[nH]cn1)NC(=O)[C@H](CCCNC(=N)N)NC(=O)[C@H](CC(C)C)NC(=O)[C@H](Cc1ccccc1)NC(=O)[C@H](CC(N)=O)NC(=O)[C@H](C)NC(=O)[C@H](CC(C)C)NC(=O)[C@H](CCCNC(=N)N)NC(=O)[C@H](CCC(N)=O)NC(=O)[C@@H](NC(=O)[C@H](C)NC(=O)[C@@H]1CSSC[C@H](NC(=O)[C@@H](N)CCCCNC(=O)COCCOCCNC(=O)COCCOCCNC(=O)CC[C@H](NC(=O)CCCCCCCCCCCCCCCCC(=O)O)C(=O)O)C(=O)N[C@@H](CC(N)=O)C(=O)N[C@@H]([C@@H](C)O)C(=O)N[C@@H](C)C(=O)N[C@@H]([C@@H](C)O)C(=O)N1)[C@@H](C)O)C(=O)N[C@@H](CC(C)C)C(=O)N1CCC[C@H]1C(=O)N1CCC[C@H]1C(=O)N[C@H](C(=O)N[C@@H](CCC(=O)O)C(=O)N[C@H](C(=O)NCC(=O)N[C@@H](CO)C(=O)N[C@@H](CC(N)=O)C(=O)N[C@H](C(=O)N[C@@H](Cc1ccc(O)cc1)C(N)=O)[C@@H](C)O)C(C)C)[C@@H](C)O [Peptide 17, K(O2Oc-O2Oc-γE-C18diacid)[CNTATC]ATQRLANFLRHSSNN(αMePhe)GPILPPTEVGSNTY-amide] (H-K([AEEA-AEEA-γGlu-C18 diacid])CNTATCATQRLANFLRHSSNN[αMeF]GPILPPTEVGSNTY-NH2; disulfide 2-7; N-terminus assumed) as the molecule, how does the “Time taken to detect increase” value read?
A: >144 h
